This is an account of results in patent publication US20250340551A1, “SMALL MOLECULE MODULATORS OF STAT6” (Gilead Sciences, Inc., priority 2024, published 2025).

The target of this test is human STAT6 (Homo sapiens (Human), UniProt P42226). Kind of test: Surface plasmon resonance assay (Biacore 8K, binding to immobilized STAT6). As to conditions: human STAT6 aa122-658, N-terminal His-tag, CM5 chip, 25° C.; geometric mean; read-out: STAT6 SPR Kd. How it is done: Biacore instruments from the 8K-series (Cytiva) were used, and measurements were performed at 25° C. Human STAT6 (truncated, aa122-658, with N-terminal His-tag, expressed in insect cells) was immobilized in the active flow cells on a CM5 chip using amine-coupling (default settings) at 10 μg/ml in 10 mM acetate buffer pH 5.5, at a contact time of 120-420 sec. and a flow rate of 10 μl/min. Reference flow cells were deactivated using blank immobilization. PBS-P+ (Cytiva) supplemented with 2% DMSO was used as running buffer, and solvent correction was applied. Compounds were tested by multi-cycle kinetics injections using a contact time of 60 sec., dissociation time of up to 300 sec., and a flow rate of 30 μl/min.
human STAT6, sequence (P42226 122-658): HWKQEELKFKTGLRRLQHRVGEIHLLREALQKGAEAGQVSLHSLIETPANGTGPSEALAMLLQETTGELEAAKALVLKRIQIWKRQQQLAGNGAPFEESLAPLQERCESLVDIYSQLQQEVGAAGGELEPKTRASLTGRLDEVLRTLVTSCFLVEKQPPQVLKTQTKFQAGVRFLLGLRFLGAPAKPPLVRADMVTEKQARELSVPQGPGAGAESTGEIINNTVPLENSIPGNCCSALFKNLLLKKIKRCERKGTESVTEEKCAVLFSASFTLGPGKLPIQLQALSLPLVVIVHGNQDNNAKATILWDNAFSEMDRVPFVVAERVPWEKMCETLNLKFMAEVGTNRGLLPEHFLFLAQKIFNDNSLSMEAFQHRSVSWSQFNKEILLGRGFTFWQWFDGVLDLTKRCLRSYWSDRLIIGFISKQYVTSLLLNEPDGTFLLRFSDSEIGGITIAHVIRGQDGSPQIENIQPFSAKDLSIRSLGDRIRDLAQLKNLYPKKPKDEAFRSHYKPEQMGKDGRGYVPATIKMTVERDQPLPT
Solvent-corrected, reference-subtracted and blank-corrected data was processed and binding isotherms were fitted according to a single report point from each sensorgram (Standard: Late binding (5 sec. before injection end); alternative: Earlier report point according to binding profile). Data fitting was done both with unfixed Rmax and with Rmax fixed to the theoretical value* assuming 1:1 binding to allow processing of data from both weak and strong binders as well as to evaluate binding stoichiometry.
Positive controls were run at the beginning, during, and at the end of the screen to evaluate surface activity.
In general terms: SPR reads the build-up and loss of mass on a sensor chip optically.
For `CN(C)C(=O)c1ccc(C2CCN(Cc3cc4c(-c5cnc(N)cc5F)ccnc4n3C)CC2)cc1` [Example 1k15, 4-[1-[[4-(6-Amino-4-fluoro-3-pyridyl)-1-methyl-pyrrolo[2,3-b]pyridin-2-yl]methyl]-4-piperidyl]-N,N-dimethyl-benzamide], the dissociation constant Kd stood at 38.9 nM.
For `[2H]C([2H])([2H])N(C(=O)c1ccc(C2CCN(Cc3cc4c(-c5cnc(N)cc5F)ccnc4n3C)CC2)cc1)C([2H])([2H])[2H]` [Example 1k16, 4-[1-[[4-(6-Amino-4-fluoro-3-pyridyl)-1-methyl-pyrrolo[2,3-b]pyridin-2-yl]methyl]-4-piperidyl]-N,N-bis(trideuteriomethyl)benzamide], the Kd was 22.6 nM.
Under `CN(C)C(=O)c1ccc(C2CCN(Cc3cc4c(-c5ccc(N)nc5C(F)(F)F)ccnc4n3C)CC2)cc1` [Example 1k17, 4-[1-[[4-[6-Amino-2-(trifluoromethyl)-3-pyridyl]-1-methyl-pyrrolo[2,3-b]pyridin-2-yl]methyl]-4-piperidyl]-N,N-dimethyl-benzamide] stands 212 nM; under `CN(C)C(=O)c1ccc(C2CCN(Cc3cc4c(-c5ccc(N)nc5OC(F)(F)F)ccnc4n3C)CC2)cc1` [Example 1k18, 4-[1-[[4-[6-Amino-2-(trifluoromethoxy)-3-pyridyl]-1-methyl-pyrrolo[2,3-b]pyridin-2-yl]methyl]-4-piperidyl]-N,N-dimethyl-benzamide], 153 nM.
With `COc1c(N)ncc(-c2ccnc3c2cc(CN2CCC(c4ccc(C(=O)N(C)C)cc4)CC2)n3C)c1C` [Example 1k19, 4-[1-[[4-(6-Amino-5-methoxy-4-methyl-3-pyridyl)-1-methyl-pyrrolo[2,3-b]pyridin-2-yl]methyl]-4-piperidyl]-N,N-dimethyl-benzamide], the dissociation constant (Kd) was determined as 738 nM.
The figure for `Cc1nc(-c2ccnc3c2cc(CN2CCC(c4ccc(C(=O)N(C)C)cc4)CC2)n3C)cnc1N` [Example 1k20, 4-[1-[[4-(5-Amino-6-methyl-pyrazin-2-yl)-1-methyl-pyrrolo[2,3-b]pyridin-2-yl]methyl]-4-piperidyl]-N,N-dimethyl-benzamide] is 1510 nM; for `CN(C)C(=O)c1ccc(C2CCN(Cc3cc4c(-c5cnc(N)c(C#N)c5)ccnc4n3C)CC2)cc1` [Example 1k21, 4-[1-[[4-(6-Amino-5-cyano-3-pyridyl)-1-methyl-pyrrolo[2,3-b]pyridin-2-yl]methyl]-4-piperidyl]-N,N-dimethyl-benzamide] it is 935 nM; for `[2H]C([2H])([2H])N(C(=O)c1ccc(C2CCN(Cc3cc4c(-c5ccc(N)nc5OC)ccnc4n3C)CC2)cc1)C([2H])([2H])[2H]` [Example 1k23, 4-[1-[[4-(6-Amino-2-methoxy-3-pyridyl)-1-methyl-pyrrolo[2,3-b]pyridin-2-yl]methyl]-4-piperidyl]-N,N-bis(trideuteriomethyl)benzamide] it is 25.5 nM.
For `CN(C)C(=O)c1ccc(C2CCN(Cc3cc4c(-c5cnc(N)c(C(F)F)c5)ccnc4n3C)CC2)cc1` [Example 1k24, 4-[1-[[4-[6-Amino-5-(difluoromethyl)-3-pyridyl]-1-methyl-pyrrolo[2,3-b]pyridin-2-yl]methyl]-4-piperidyl]-N,N-dimethyl-benzamide], the equilibrium dissociation constant (Kd) was 336 nM.
Under `CN(C)C(=O)c1ccc(C2CCN(Cc3cc4c(-c5cnc(N)c(S(C)(=O)=O)c5)ccnc4n3C)CC2)cc1` [Example 1k25, 4-[1-[[4-(6-Amino-5-methylsulfonyl-3-pyridyl)-1-methyl-pyrrolo[2,3-b]pyridin-2-yl]methyl]-4-piperidyl]-N,N-dimethyl-benzamide] stands 6050 nM; under `COC(=O)CNc1ccc(-c2ccnc3c2cc(CN2CCC(c4ccc(C(=O)N(C)C)cc4)CC2)n3C)cn1` [Example 1k26, Methyl 2-[[5-[2-[[4-[4-(dimethylcarbamoyl)phenyl]-1-piperidyl]methyl]-1-methyl-pyrrolo[2,3-b]pyridin-4-yl]-2-pyridyl]amino]acetate], 16.8 nM.
Under `CN(C)C(=O)c1ccc(C2CCN(Cc3cc4c(-c5cnc(N)cc5C(F)(F)F)ccnc4n3C)CC2)cc1` [Example 1k27, 4-[1-[[4-[6-Amino-4-(trifluoromethyl)-3-pyridyl]-1-methyl-pyrrolo[2,3-b]pyridin-2-yl]methyl]-4-piperidyl]-N,N-dimethyl-benzamide] stands 5030 nM.
`CC(=O)Nc1cc(C)c(-c2ccnc3c2cc(CN2CCC(c4ccc(C(=O)N(C)C)cc4)CC2)n3C)cn1` [Example 1k28, 4-[1-[[4-(6-Acetamido-4-methyl-3-pyridyl)-1-methyl-pyrrolo[2,3-b]pyridin-2-yl]methyl]-4-piperidyl]-N,N-dimethyl-benzamide]: the Kd was 428 nM.
Regarding `Cc1cc(N)ncc1-c1ccnc2c1cc(CN1CCC(c3ccc(C(=O)N(C)C)cc3)CC1)n2C` [Example 1k30, 4-[1-[[4-(6-Amino-4-methyl-3-pyridyl)-1-methyl-pyrrolo[2,3-b]pyridin-2-yl]methyl]-4-piperidyl]-N,N-dimethyl-benzamide], the Kd was 62.1 nM.
Under `Cc1cc(-c2ccnc3c2cc(CN2CCC(c4ccc(C(=O)N(C)C)cc4)CC2)n3C)c(C)nc1N` [Example 1k31, 4-[1-[[4-(6-Amino-2,5-dimethyl-3-pyridyl)-1-methyl-pyrrolo[2,3-b]pyridin-2-yl]methyl]-4-piperidyl]-N,N-dimethyl-benzamide] stands 78.5 nM; under `Cc1cc(N)cc(C)c1-c1ccnc2c1cc(CN1CCC(c3ccc(C(=O)N(C)C)cc3)CC1)n2C` [Example 1k32, 4-[1-[[4-(4-Amino-2,6-dimethyl-phenyl)-1-methyl-pyrrolo[2,3-b]pyridin-2-yl]methyl]-4-piperidyl]-N,N-dimethyl-benzamide], 1230 nM; under `COc1cc(-c2ccnc3c2cc(CN2CCC(c4ccc(C(=O)N(C)C)cc4)CC2)n3C)c(C)nc1N` [Example 1k33, 4-[1-[[4-(6-Amino-5-methoxy-2-methyl-3-pyridyl)-1-methyl-pyrrolo[2,3-b]pyridin-2-yl]methyl]-4-piperidyl]-N,N-dimethyl-benzamide], 2770 nM.
Under `CN(C)C(=O)c1ccc(C2CCN(Cc3cc4c(-c5cnc(N)c(CO)c5)ccnc4n3C)CC2)cc1` [Example 1k34, 4-[1-[[4-[6-Amino-5-(hydroxymethyl)-3-pyridyl]-1-methyl-pyrrolo[2,3-b]pyridin-2-yl]methyl]-4-piperidyl]-N,N-dimethyl-benzamide] stands 245 nM; under `CCOC(=O)c1nc(N)ccc1-c1ccnc2c1cc(CN1CCC(c3ccc(C(=O)N(C)C)cc3)CC1)n2C` [Example 1k35, Ethyl 6-amino-3-[2-[[4-[4-(dimethylcarbamoyl)phenyl]-1-piperidyl]methyl]-1-methyl-pyrrolo[2,3-b]pyridin-4-yl]pyridine-2-carboxylate], 11 nM; under `CN(C)C(=O)c1ccc(C2CCN(Cc3cc4c(-c5cnc(N)c(C(F)(F)F)c5)ccnc4n3C)CC2)cc1` [Example 1k36, 4-[1-[[4-[6-Amino-5-(trifluoromethyl)-3-pyridyl]-1-methyl-pyrrolo[2,3-b]pyridin-2-yl]methyl]-4-piperidyl]-N,N-dimethyl-benzamide], 1120 nM.
Under `[2H]C([2H])([2H])N(C(=O)c1ccc(C2CCN(Cc3cc4c(-c5ccc(NC)nc5)ccnc4n3C)CC2)cc1)C([2H])([2H])[2H]` [Example 1k38, 4-[1-[[1-Methyl-4-[6-(methylamino)-3-pyridyl]pyrrolo[2,3-b]pyridin-2-yl]methyl]-4-piperidyl]-N,N-bis(trideuteriomethyl)benzamide] stands 27.7 nM.
As for `Cc1nc(N)cnc1-c1ccnc2c1cc(CN1CCC(c3ccc(C(=O)N(C)C)cc3)CC1)n2C` [Example 1k39, 4-[1-[[4-(5-Amino-3-methyl-pyrazin-2-yl)-1-methyl-pyrrolo[2,3-b]pyridin-2-yl]methyl]-4-piperidyl]-N,N-dimethyl-benzamide], the dissociation constant (Kd) stood at 2280 nM.
On to `CC(=O)Nc1ccc(-c2ccnc3c2cc(CN2CCC(c4ccc(C(=O)N(C)C)cc4)CC2)n3C)c(C)n1` [Example 1k40, 4-[1-[[4-(6-Acetamido-2-methyl-3-pyridyl)-1-methyl-pyrrolo[2,3-b]pyridin-2-yl]methyl]-4-piperidyl]-N,N-dimethyl-benzamide], for which the Kd amounted to 475 nM.
The figure for `CN(C)C(=O)c1ccc(C2CCN(Cc3cc4c(-c5cnc(N)nc5C#N)ccnc4n3C)CC2)cc1` [Example 1k41, 4-[1-[[4-(2-Amino-4-cyano-pyrimidin-5-yl)-1-methyl-pyrrolo[2,3-b]pyridin-2-yl]methyl]-4-piperidyl]-N,N-dimethyl-benzamide] is 188 nM.
The figure for `Cc1c(-c2ccnc3c2cc(CN2CCC(c4ccc(C(=O)N(C)C)cc4)CC2)n3C)cnc(N)c1C#N` [Example 1k42, 4-[1-[[4-(6-Amino-5-cyano-4-methyl-3-pyridyl)-1-methyl-pyrrolo[2,3-b]pyridin-2-yl]methyl]-4-piperidyl]-N,N-dimethyl-benzamide] is 731 nM.
On to `[2H]C([2H])([2H])n1c(CN2CCC(c3ccc(C(=O)N(C)C)cc3)CC2)cc2c(-c3ccc(N)nc3C#N)ccnc21` [Example 1k45, 4-[1-[[4-(6-Amino-2-cyano-3-pyridyl)-1-(trideuteriomethyl)pyrrolo[2,3-b]pyridin-2-yl]methyl]-4-piperidyl]-N,N-dimethyl-benzamide], for which the Kd was found to be 27.7 nM.

A word on the Kd: it is the constant that tells how readily two partners part at equilibrium.
